Results reported in US7964613B2 (Asahi Kasei Pharma Corporation, priority 2007, dated 2011).

Assays:
human ROCK1 = target: T1, human ROCK1 (Homo sapiens, UniProt Q13464); test: Measurement of Rho kinase inhibitory activity (ELISA of MBS phosphorylation); format: biochemical; details: human ROCK1, MBS substrate, 100 μM ATP, 30° C. for 10 minutes
T1 construct: His tag (N); host or cells: insect cells (Sf9)
Procedure: In this test, human ROCK1 was used as Rho kinase, MBS (myosin binding subunit, subunit constituting myosin phosphatase) was used as the substrate of Rho kinase, and an anti-phosphorylated MBS antibody was used for detection of phosphorylation. The activity for inhibiting Rho kinase was determined by measuring phosphorylation of MBS by the Rho kinase by ELISA in the presence of an appropriately diluted test compound. As the Rho kinase used, a recombinant protein (N-terminal His-tagged recombinant human ROCK1 residues (1Met-[…])) was used, which was produced in insect cells (Sf9) using a sequence (1-727), of which activity was confirmed in the paper of Ishizaki et al. (Ishizaki, T. et al., FEBS Letters, 404, pp 118-124, 1997), based on the sequence of human ROCK1 (p 160 ROCK) described in the report of Ishizaki et al. (Ishizaki, T. et al., EMBO J., 15, pp 1885-1893, 1996). Further, as the MBS protein and anti-phosphorylated MBS antibody, those prepared according to the method described in the paper of Ito et al. (Ito, K et al., J. Physiol., 546, pp 823-836, 2003) were used.
A solution of MBS (Asahi Kasei Pharma, lot No, 040814n7-10) diluted with PBS to an appropriate concentration was added to an ELISA plate (Maxisorp, Nunc), and left, stand overnight at 4° C., and then the wells were washed twice with a washing solution (WB, washing buffer, 0.1% Tween 20/PBS). To the wells were added 1% bovine serum albumin (Sigma)/PBS, and left for 1 to 3 hours, and then the wells were washed 5 times with WB to prepare a substrate-immobilized plate. Onto this plate, a reaction mixture (5 mM MgSO4/0.1 M NaCl/20 mM HEPES (pH 7.5)/100 μM ATP/5 mM DTT), a test compound, and appropriately diluted human ROCK1 (Asahi Kasei Pharma, lot No, 030126.120-22) were added, and then reacted at 30° C. for 10 minutes. Then, 0.2 M EDTA (pH 7.5) was added to terminate the reaction, and the wells were washed 5 times with WB. A rabbit anti-phosphorylated MBS antibody solution (Asahi Kasei Pharma, lot No, 122676431) diluted 10,000 times with WB containing 1% bovine serum albumin was added to the wells, and after the reaction for 1 hour, the wells were washed 5 times with WB. Goat anti-rabbit IgG-HRP (Zymed) diluted 1,000 times with WB containing 1% bovine serum albumin was added to the wells as the secondary detection antibody and the mixture was reacted for 1 hour, and then the wells were washed 5 times with WB. An OPD (o-phenylenediamine) solution (1 mg/ml OPD, Sigma), 5.1 g/l of citric acid monohydrate, and 18.4 g/l of Na2HPO4.12H2O were added to the wells to develop color, […] was added 5 minutes later to terminate the color development, and absorbance was measured at 490 nm.
The inhibition ratio was calculated as follows. Inhibition ratio(%)=[…]
Further, the inhibition ratio was calculated with changing the concentration of the test compound, and a compound concentration providing an inhibition ratio of 50% was obtained as IC50.

[1] = tested on: rabbit normal intraocular pressure; test: Intraocular pressure reducing action; format: in vivo, Japanese white rabbit; details: Oryctolagus cuniculus, topical; 3 mM aqueous solution, 50 μl to the left eye; max IOP reduction (2, 4, 6 hours) / value immediately before administration; read-out: intraocular pressure reducing degree
Procedure: A Japanese white rabbit having a body weight of about 2 kg was placed in a positioner and naturalized for one week before the experiment. An opthalmologic local anesthesant (Benoxil) was administered to both eyes, and then intraocular pressure was measured by using a tonometer (Classic 30, Solan). A 3 mM aqueous solution of a test compound was administered in a volume of 50 μl to the left eye, and the right eye was not treated (control eye). The intraocular pressure values were measured for the left and right eyes immediately before, and 2, 4 and 6 hours after the administration of the aqueous solution of the test compound, and the difference of the measured values for the left and right eyes was considered an intraocular pressure reduction value of the test medicament at each measurement time. The largest difference of the values for the left and right eyes among the measured values at the measurement times (after 2, 4 and 6 hours) was considered the maximum intraocular pressure reduction value (max ? IOP) of each test medicament. The intraocular pressure reducing degree representing the intraocular pressure reducing action of each test medicament was calculated according to the following formula. Since rabbits show significant daily variation of intraocular pressure, daily variation is added when change of intraocular pressure is measured over time, and the intraocular pressure reducing action may be overestimated. Therefore, we used this calculation method of intraocular pressure reduction value in order to minimize the influence of the variation. Intraocular pressure reducing degree(%)=(max ? IOP/Intraocular pressure value immediately before administration)×100

T1 sequence (Q13464 1-727): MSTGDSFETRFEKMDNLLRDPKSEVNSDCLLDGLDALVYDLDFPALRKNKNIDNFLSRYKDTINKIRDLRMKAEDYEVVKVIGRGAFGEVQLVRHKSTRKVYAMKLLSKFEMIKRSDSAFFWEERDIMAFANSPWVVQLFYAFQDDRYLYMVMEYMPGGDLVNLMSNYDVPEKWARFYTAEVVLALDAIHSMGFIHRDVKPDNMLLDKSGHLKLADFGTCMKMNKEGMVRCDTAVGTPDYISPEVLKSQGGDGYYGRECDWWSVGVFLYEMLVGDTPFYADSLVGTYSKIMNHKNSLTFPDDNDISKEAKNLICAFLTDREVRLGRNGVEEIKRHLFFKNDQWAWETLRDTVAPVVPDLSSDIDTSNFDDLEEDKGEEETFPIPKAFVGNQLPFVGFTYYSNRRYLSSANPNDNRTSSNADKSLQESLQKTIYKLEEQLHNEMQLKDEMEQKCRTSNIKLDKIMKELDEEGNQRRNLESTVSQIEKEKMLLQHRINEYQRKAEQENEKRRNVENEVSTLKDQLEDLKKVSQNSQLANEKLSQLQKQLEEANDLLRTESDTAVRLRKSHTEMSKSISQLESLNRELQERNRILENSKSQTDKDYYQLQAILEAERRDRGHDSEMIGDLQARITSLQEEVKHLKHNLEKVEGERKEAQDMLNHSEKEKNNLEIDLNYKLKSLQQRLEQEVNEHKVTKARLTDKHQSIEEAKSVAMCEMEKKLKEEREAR

| Compound | IC50 (human ROCK1) [µM] | inhibition in vivo at 3000 µM [1] [%] |
| --- | --- | --- |
| CNCC(=O)N[C@H]1CCN(S(=O)(=O)c2cccc3cncc(Cl)c23)C1 [Example 51-1, (S)-3-(2-Methylaminoacetyl)amino-1-(4-chloro-5-isoquinolinesulfonyl)pyrrolidine] | 1 to 3 | 10 to 20 |
| Cc1cncc2cccc(S(=O)(=O)N3CC[C@H](NCc4cccn4C)C3)c12 [Example 8-21] | < 1 | 10 to 20 |
| O=C(N[C@H]1CCN(S(=O)(=O)c2cccc3cncc(Cl)c23)C1)C1CNCCO1 (stereo partly drawn) [Example 102, N—[(S)-1-(4-chloro-5-isoquinolinesulfonyl)pyrrolidin-3-yl]morpholin-2-carboxamide] | < 1 | ≥ 20 |
| O=S(=O)(c1cccc2c(O)ncc(Cl)c12)N1CC[C@H](NC2CCOCC2)C1 [Example 64-1, (S)-3-(4-Tetrahydropyranyl)amino-1-(1-hydroxy-4-chloro-5-isoquinolinesulfonyl)pyrrolidine] | < 1 | 10 to 20 |
| Cc1cncc2cccc(S(=O)(=O)N3CCC[C@H](N)C3)c12 [Example 22-1, (S)-3-Amino-1-(4-methyl-5-isoquinolinesulfonyl)piperidine] | < 1 | 10 to 20 |
| CC(N)C1CCN(S(=O)(=O)c2cccc3cncc(Cl)c23)CC1 (stereo not drawn) [Example 53] | < 1 | 10 to 20 |
| Cc1cncc2cccc(S(=O)(=O)N3CC[C@H](NCCN)C3)c12 [Example 8-32] | < 1 | 5 to 10 |
| O=C(COc1ccccc1)N[C@H]1CCN(S(=O)(=O)c2cccc3cncc(Cl)c23)C1 [Example 103, (S)-3-(2-Phenoxyacetyl)amino-1-(4-chloro-5-isoquinolinesulfonyl)pyrrolidine] | 1 to 3 | ≥ 20 |
| Cc1cncc2cccc(S(=O)(=O)N3CC[C@H](NCCc4ccccc4)C3)c12 [Example 8-37] | < 1 | 5 to 10 |
| Cc1cncc2cccc(S(=O)(=O)N3CC[C@H](NCC4CC4)C3)c12 [Example 8-26] | < 1 | 5 to 10 |
| Cc1cncc2cccc(S(=O)(=O)N3CC[C@H](NC(C)C)C3)c12 [Example 8-27] | 1 to 3 | 10 to 20 |
| C=Cc1cncc2cccc(S(=O)(=O)N3CC[C@H](N)C3)c12 [Example 9-1, (S)-3-Amino-1-(4-vinyl-5-isoquinolinesulfonyl)pyrrolidine] | < 1 | ≥ 20 |
| O=S(=O)(c1cccc2cncc(Cl)c12)N1CC[C@H](NCc2ccc3c(c2)OCCO3)C1 [Example 19-40] | < 1 | 5 to 10 |
| NCCCN[C@H]1CCN(S(=O)(=O)c2cccc3cncc(Cl)c23)C1 [Example 62-1, (S)-3-(3-Aminopropyl)amino-1-(4-chloro-5-isoquinolinesulfonyl)pyrrolidine] | 1 to 3 | 10 to 20 |
| N[C@@H]1CCN(S(=O)(=O)c2cccc3cncc(Cl)c23)C1 [Example 19-2, (R)-3-Amino-1-(4-chloro-5-isoquinolinesulfonyl)pyrrolidine] | < 1 | ≥ 20 |
| NCCN[C@H]1CCN(S(=O)(=O)c2cccc3cncc(Br)c23)C1 [Example 1-31] | < 1 | 10 to 20 |
| Cc1cnc(O)c2cccc(S(=O)(=O)N3CC[C@H](N)C3)c12 [Example 25-1, (S)-3-Amino-1-(1-hydroxy-4-methyl-5-isoquinolinesulfonyl)pyrrolidine] | < 1 | 10 to 20 |
| N[C@H]1CCCN(S(=O)(=O)c2cccc3cncc(Cl)c23)C1 [Example 21-1, (S)-3-Amino-1-(4-chloro-5-isoquinolinesulfonyl)piperidine] | 1 to 3 | ≥ 20 |
| N[C@H]1CCN(S(=O)(=O)c2cccc3c(O)ncc(Cl)c23)C1 [Example 30-1, (S)-3-Amino-1-(1-hydroxy-4-chloro-5-isoquinolinesulfonyl)pyrrolidine] | < 1 | ≥ 20 |
| Cc1cncc2cccc(S(=O)(=O)N3CC[C@@H](N)C3)c12 [Example 8-2, (R)-3-Amino-1-(4-methyl-5-isoquinolinesulfonyl)pyrrolidine] | < 1 | ≥ 20 |
| C#Cc1cncc2cccc(S(=O)(=O)N3CC[C@H](NCc4ccc(OC)cc4)C3)c12 [Example 10-7] | < 1 | 10 to 20 |
| O=C(COC1CCOCC1)N[C@H]1CCN(S(=O)(=O)c2cccc3cncc(Cl)c23)C1 [Example 110, (S)-3-[[2-(Tetrahydro-2H-pyran-4-yloxy)]acetyl]amino-1-(4-chloro-5-isoquinolinesulfonyl)pyrrolidine] | 1 to 3 | ≥ 20 |
| CN[C@@H]1CCN(S(=O)(=O)c2cccc3c(O)ncc(Cl)c23)C1 [Example 36-2, (R)-1-(1-Hydroxy-4-chloro-5-isoquinolinesulfonyl)-3-(methylamino)pyrrolidine] | 1 to 3 | 10 to 20 |
| O=C(COc1cccnc1)N[C@H]1CCN(S(=O)(=O)c2cccc3cncc(Cl)c23)C1 [Example 104, (S)-3-[2-(3-Pyridyloxy)acetyl]amino-1-(4-chloro-5-isoquinolinesulfonyl)pyrrolidine] | 1 to 3 | ≥ 20 |
| N[C@H]1CCN(S(=O)(=O)c2cccc3cncc(Br)c23)C1 [Example 1-1, (S)-3-Amino-1-(4-bromo-5-isoquinolinesulfonyl)pyrrolidine] | < 1 | ≥ 20 |
| COc1ccc(CN[C@H]2CCN(S(=O)(=O)c3cccc4cncc(F)c34)C2)cc1 [Example 18-7] | < 1 | 5 to 10 |
| O=C(Cn1cnnn1)N[C@H]1CCN(S(=O)(=O)c2cccc3cncc(Cl)c23)C1 [Example 85, (S)-3-[2-(1H-Tetrazol-1-yl)acetyl]amino-1-(4-chloro-5-isoquinolinesulfonyl)pyrrolidine] | 1 to 3 | 10 to 20 |
| N[C@H]1CCN(S(=O)(=O)c2cccc3c(O)ncc(Br)c23)C1 [Example 7-1, (S)-3-Amino-1-(1-hydroxy-4-bromo-5-isoquinolinesulfonyl)pyrrolidine] | < 1 | ≥ 20 |
| O=C(N[C@H]1CCN(S(=O)(=O)c2cccc3cncc(Cl)c23)C1)C1COCCO1 (stereo partly drawn) [Example 109, N—[(S)-1-(4-Chloro-5-isoquinolinesulfonyl)pyrrolidin-3-yl]-1,4-dioxane-2-carboxamide] | 1 to 3 | ≥ 20 |
| CCN[C@H]1CCN(S(=O)(=O)c2cccc3cncc(C)c23)C1 [Example 8-4] | < 1 | 10 to 20 |
